Assay [1] concerns opsonized S. aureus JE2 WT in human neutrophils. The conditions noted are these: 1 h incubation, MOI 1, opsonized with 10% normal human serum; mean of at least seven replicates; without DPI 49.9%. As to the method:
(§1) Blood was collected from healthy adult volunteers and written informed consent was given. Isolation of neutrophils was performed following the procedure described in[36]. All methods were carried out in accordance with relevant guidelines and regulations. The institutional review board (IRB) of the University of Tübingen approved the study and all adult subjects provided informed consent. This study was done in accordance with the ethics committee of the medical faculty of the University of Tübingen that approved the study, Approval number 015/2014 BO2. Briefly, heparinized blood was diluted 1:1 (v/v) with PBS containing 0.5% BSA and 2 mM EDTA and layered onto a gradient of Biocoll (density, 1.077 g/ml; Biochrom) and Histopaque (density, 1.119 g/ml; Sigma). After centrifugation for 20 min at 380×g, neutrophils were collected from the Histopaque phase. Cells were subjected to a brief hypotonic shock with ultrapure-water containing 155 mM ammonium chloride, 1 mM potassium hydrogen carbonate and 0.1 mM EDTA at pH 7.4, washed, and suspended at 2.5 × 10^6 cells/ml in RPMI containing […] HSA, 2 mM glutamine, 2 mM sodium pyruvate and 10 mM HEPES.
(§2) Starter cultures of S. aureus JE2 and its respective atpA mutant were grown in TSB medium overnight.

Assay [2] deals with opsonized S. aureus JE2 atpA mutant in human neutrophils. The conditions noted are these: 1 h incubation, MOI 1, opsonized with 10% normal human serum; mean of at least seven replicates; without DPI 39.2%. On the procedure:
as §1, §2

Assay [3] relates to S. aureus JE2. Kind of assay: Etest MIC on TSA. Format: cell-based, Staphylococcus aureus. Particulars: 37 °C, 24 h. As to the method: (§3) The MIC for polymyxin B was determined using Etest (bioMérieux, France) in the absence and in the presence of sub-inhibitory concentrations (0.0625x–0.25 × MIC) of resveratrol or menadione (1 µg/ml, Sigma). From overnight cultures, strains were diluted to approximately 10^8 CFU/ml and then distributed on TSA plates using a sterile cotton swab.

In another assay the test system is atpA::ΦNΣ. Kind of assay: Etest MIC on TSA. Format: cell-based, Staphylococcus aureus. Particulars: 37 °C, 24 h. On the procedure:
as §3

Assay [4] has as its system atpA^+ (allelic exchange of transposon insertion with intact atpA gene). In words: Etest MIC on TSA. Format: cell-based, Staphylococcus aureus. The conditions noted are these: 37 °C, 24 h. On the procedure:
as §3

Another assay relates to menD::ΦNΣ. Kind of assay: Etest MIC on TSA. Format: cell-based, Staphylococcus aureus. Particulars: 37 °C, 24 h. As to the method: as §3
Another assay has as its system S. aureus JE2 (WT). Kind of assay: Bacterial cell survival assay (CFU after 2 h exposure in NaPi). Format: cell-based, Staphylococcus aureus. On the procedure: (§4) From overnight cultures of S. aureus JE2 and mutants, 10 μl was diluted into 990 μl fresh TSB medium in a falcon tube and grown for 2 h for the cells to reach early exponential phase. After 2 h the cultures were re-suspended in 10 mM sodium phosphate buffer (pH 7.4), termed NaPi (Medicago, Sweden). Cells were subsequently diluted in NaPi to approximately 5 × 10^5 CFU/ml, and combined with antimicrobial peptides and resveratrol when indicated, to a final volume of 100 µl and incubated in 96-well plates with shaking for 2 h at 37 °C. Bacteria were plated for CFU on TSA plates. Following overnight incubation at 37 °C for 24 h, viable cells were enumerated and relative cell survival was calculated as CFUwith peptide/CFUwithout peptide at 2 h post-exposure.

Assay [5] relates to S. aureus JE2. Kind of assay: Two-fold broth microdilution MIC in TSB. The conditions noted are these: Staphylococcus aureus, JE2, 24 h. Format: cell-based. As to the method: The minimum inhibitory concentration for resveratrol was determined using a two-fold broth microdilution assay in TSB (100 µl) with an initial inoculum of approximately 5 × 10^5 cells/ml.
The test system of assay [6] is S. aureus JE2 atpA mutant (atpA::ΦNΣ). In words: Bacterial cell survival assay (CFU after 2 h exposure in NaPi). Format: cell-based, Staphylococcus aureus. The conditions noted are these: for difference in susceptibility / survival between atpA mutant and WT (in words): 2 h exposure at the concentrations highlighted in Fig. 1a. As to the method:
as §4

Assay [7] has as its system S. aureus JE2 atpB mutant (atpB::ΦNΣ). Described as above. Format: cell-based, Staphylococcus aureus. The conditions noted are these: hBD4 5 µM. As to the method:
as §4

Assay [8] concerns S. aureus JE2 atpG mutant (atpG::ΦNΣ). Described as above. Format: cell-based, Staphylococcus aureus. The conditions noted are these: hBD4 5 µM. As to the method: as §4
In assay [9] the test system is S. aureus JE2 menD mutant (menD::ΦNΣ). The assay is described as above. Format: cell-based, Staphylococcus aureus. The conditions noted are these: hBD4 5 µM. On the procedure: as §4

In brackets after ≈: the same amount, converted by molar mass. Where a SMILES comes first, the peptide text is derived from it. Bridges are numbered along the chain shown (N, C = ends). Where no end group is shown, it is not given here. [ ]: non-standard residue; d: D form. The star is where a group is joined. X1 = CC[C@H](C)CCCCC(=O)*; Dab = NCC[C@H](N)C(=O)O A value given as a limit tells only on which side of the number the result lay.

Turning to `c1ccc2c(c1)[I+]c1ccccc1-2` [DPI, diphenyleneiodonium], the “surviving WT cells in DPI-treated neutrophils, percentage of initial counts” value in assay [1] is recorded as 91.4%. For the same compound, the “surviving atpA cells in DPI-treated neutrophils, percentage of initial counts” value in assay [2] is 74.3%.
For `CC[C@H](C)CCCCC(=O)N[C@@H](CCN)C(=O)N[C@H](C(=O)N[C@@H](CCN)C(=O)N[C@H]1CCNC(=O)[C@H]([C@@H](C)O)NC(=O)[C@H](CCN)NC(=O)[C@H](CCN)NC(=O)[C@H](CC(C)C)NC(=O)[C@@H](Cc2ccccc2)NC(=O)[C@H](CCN)NC1=O)[C@@H](C)O` [polymyxin B] (X1-[Dab]T[Dab][Dab][Dab][dF]L[Dab][Dab]T; lactam 4-C (inferred); N-terminus assumed), the “Polymyxin B MIC” value in the assay on S. aureus JE2 [3] (TSA + 0 µg/ml resveratrol) is 128 µg/mL; in the assay with S. aureus JE2 [3] (TSA + 16 µg/ml resveratrol), 64 to 96 µg/mL; with S. aureus JE2 [3] (TSA + 32 µg/ml resveratrol), 48 µg/mL; with S. aureus JE2 [3] (TSA + 64 µg/ml resveratrol), 24 µg/mL. The MIC was 128 µg/mL (≈ 106 µM) against S. aureus JE2 [3] (TSA); 16 µg/mL (≈ 13.3 µM) in the assay with atpA::ΦNΣ; 96 µg/mL (≈ 79.8 µM) in [4]; 192 µg/mL in the assay with menD::ΦNΣ (TSA + menadione (1 µg/ml)); > 1024 µg/mL with menD::ΦNΣ (TSA).
Regarding `Oc1ccc(/C=C/c2cc(O)cc(O)c2)cc1` [resveratrol], the “increase in killing of WT S. aureus compared with hBD4 alone” value in the assay with S. aureus JE2 (WT) (resveratrol 32 µg/ml in combination with hBD4 5 µM) was found to be 20 fold. Besides, the “impact on S. aureus viability” value with S. aureus JE2 (WT) (resveratrol alone at sub-inhibitory concentration 0.125 × MIC (32 µg/ml)) is on record as “no impact”. Besides, the minimal inhibitory concentration (MIC) in the assay with S. aureus JE2 [5] was 256 µg/mL (≈ 1120 µM).
With “LL-37 (LLGDFFRKSKEKIGKEFKRIVQRIKDFLRNLVPRTES; Antibacterial peptide LL-37; UniProt P49913 134-170, looked up) [human antimicrobial peptide of the cathelicidin family (Isca Biochemicals)]”, the “difference in susceptibility / survival between atpA mutant and WT (in words)” value in assay [6] was “minor increase in bactericidal activity”.
Same read-out and setting: with “hBD1: human β-defensin 1 (Innovagen) (DHYNCVSSGGQCLYSACPIFTKIQGTCYRGKAKCCK; ends and bridges not checked; cysteine pairing not given here; UniProt P60022 33-68, looked up)” the entry was “no differences”.
Same read-out and setting: with “hBD3: human β-defensin 3 (Innovagen) (GIINTLQKYYCRVRGGRCAVLSCLPKEEQIGKCSTRGRKCCRRKK; ends and bridges not checked; cysteine pairing not given here; UniProt P81534 23-67, looked up)” the entry was “no differences”.
“hBD4: human β-defensin 4 (Innovagen) (EFELDRICGYGTARCRKKCRSQEYRIGRCPNTYACCLRKWDESLLNRTKP; ends and bridges not checked; cysteine pairing not given here; UniProt Q8WTQ1 23-72, looked up)”: in [6], the “difference in susceptibility / survival between atpA mutant and WT (in words)” value is recorded as “more susceptible”. Moreover, the “greater reduction in viable cells of atpA mutant compared with WT” value in [6] (2 h exposure, concentrations of Fig. 1a (5 µM)) is given as 63 fold. The “susceptibility of atpB mutant compared with WT” value in [7] is reported as “increased susceptibility”. Moreover, the “susceptibility of atpG mutant compared with WT” value in assay [8] is “increased susceptibility”. In [9], the “reduction in viable cell count of menD mutant” value is “no reduction in viable cell count”.
Regarding histatin-5, in assay [6], the “difference in susceptibility / survival between atpA mutant and WT (in words)” value was “minor increase in bactericidal activity”.
